Measurements from patent publication US9586936B2, “Heteroarylamine derivatives as protein kinase inhibitors” (KOREA INSTITUTE OF SCIENCE AND TECHNOLOGY, priority 2014, dated 2017).

Columns and labels:
BLK = BLK (Homo sapiens, UniProt P51451); test: kinase inhibition activity, full kinase panel; format: biochemical; conditions: 1 μM of the compound; read-out: kinase activity inhibited (% inhibition)
Method: (§1) In order to measure the inhibition activity (% inhibition) of the compound of the present invention against protein kinases, a biochemical assay was conducted using a full kinase panel consisting of 340 kinases. As a representative compound of the present invention, N-(2,6-dichloro-3,5-dimethoxyphenyl)-1-(6-((4-(4-ethylpiperazin-1-yl)phenyl)amino)pyrimidin-4-yl)-1H-benz[d]imidazol-2-amine synthesized in Example 1 was used.
(§2) The kinases whose activity is inhibited by 50% or more when treated with 1 μM of the compound of Example 1 are listed in Table 1.

ROS = ROS (Homo sapiens, UniProt P08922); test: kinase inhibition activity, full kinase panel; format: biochemical; conditions: 1 μM of the compound; read-out: kinase activity inhibited (% inhibition)
Method: as §1, §2

FGFR2 = FGFR2 (Homo sapiens, UniProt P21802); test: kinase inhibition activity, full kinase panel; format: biochemical; conditions: 1 μM of the compound; read-out: kinase activity inhibited (% inhibition)
Method: as §1, §2

DDR2 = DDR2 (Homo sapiens, UniProt Q16832); test: kinase inhibition activity, full kinase panel; format: biochemical; conditions: 1 μM of the compound; read-out: kinase activity inhibited (% inhibition)
Method: as §1, §2

TRKA = TRKA (Homo sapiens, UniProt P04629); test: kinase inhibition activity, full kinase panel; format: biochemical; conditions: 1 μM of the compound; read-out: kinase activity inhibited (% inhibition)
Method: as §1, §2

LYN = LYN (Homo sapiens, UniProt P07948); test: kinase inhibition activity, full kinase panel; format: biochemical; conditions: 1 μM of the compound; read-out: kinase activity inhibited (% inhibition)
Method: as §1, §2

DYRK1B = DYRK1B (Homo sapiens, UniProt Q9Y463); test: kinase inhibition activity, full kinase panel; format: biochemical; conditions: 1 μM of the compound; read-out: kinase activity inhibited (% inhibition)
Method: as §1, §2

EGFR = EGFR (Homo sapiens, UniProt P00533); test: kinase inhibition activity, full kinase panel; format: biochemical; conditions: 1 μM of the compound; read-out: kinase activity inhibited (% inhibition)
Method: as §1, §2

MAP4K5 = MAP4K5 (Homo sapiens, UniProt Q9Y4K4); test: kinase inhibition activity, full kinase panel; format: biochemical; conditions: 1 μM of the compound; read-out: kinase activity inhibited (% inhibition)
Method: as §1, §2

TNK1 = TNK1 (Homo sapiens, UniProt Q13470); test: kinase inhibition activity, full kinase panel; format: biochemical; conditions: 1 μM of the compound; read-out: kinase activity inhibited (% inhibition)
Method: as §1, §2

LYN B = LYN B (Homo sapiens, UniProt P07948); test: kinase inhibition activity, full kinase panel; format: biochemical; conditions: 1 μM of the compound; read-out: kinase activity inhibited (% inhibition)
Method: as §1, §2

SIK1 = SIK1 (Homo sapiens, UniProt P57059); test: kinase inhibition activity, full kinase panel; format: biochemical; conditions: 1 μM of the compound; read-out: kinase activity inhibited (% inhibition)
Method: as §1, §2

TAOK1 = TAOK1 (Homo sapiens, UniProt Q7L7X3); test: kinase inhibition activity, full kinase panel; format: biochemical; conditions: 1 μM of the compound; read-out: kinase activity inhibited (% inhibition)
Method: as §1, §2

ACK1 = ACK1 (Homo sapiens, UniProt Q07912); test: kinase inhibition activity, full kinase panel; format: biochemical; conditions: 1 μM of the compound; read-out: kinase activity inhibited (% inhibition)
Method: as §1, §2

LIMK1 = LIMK1 (Homo sapiens, UniProt P53667); test: kinase inhibition activity, full kinase panel; format: biochemical; conditions: 1 μM of the compound; read-out: kinase activity inhibited (% inhibition)
Method: as §1, §2

c-Kit = c-Kit (Homo sapiens, UniProt P10721); test: kinase inhibition activity, full kinase panel; format: biochemical; conditions: 1 μM of the compound; read-out: kinase activity inhibited (% inhibition)
c-Kit, sequence (P10721 26-976): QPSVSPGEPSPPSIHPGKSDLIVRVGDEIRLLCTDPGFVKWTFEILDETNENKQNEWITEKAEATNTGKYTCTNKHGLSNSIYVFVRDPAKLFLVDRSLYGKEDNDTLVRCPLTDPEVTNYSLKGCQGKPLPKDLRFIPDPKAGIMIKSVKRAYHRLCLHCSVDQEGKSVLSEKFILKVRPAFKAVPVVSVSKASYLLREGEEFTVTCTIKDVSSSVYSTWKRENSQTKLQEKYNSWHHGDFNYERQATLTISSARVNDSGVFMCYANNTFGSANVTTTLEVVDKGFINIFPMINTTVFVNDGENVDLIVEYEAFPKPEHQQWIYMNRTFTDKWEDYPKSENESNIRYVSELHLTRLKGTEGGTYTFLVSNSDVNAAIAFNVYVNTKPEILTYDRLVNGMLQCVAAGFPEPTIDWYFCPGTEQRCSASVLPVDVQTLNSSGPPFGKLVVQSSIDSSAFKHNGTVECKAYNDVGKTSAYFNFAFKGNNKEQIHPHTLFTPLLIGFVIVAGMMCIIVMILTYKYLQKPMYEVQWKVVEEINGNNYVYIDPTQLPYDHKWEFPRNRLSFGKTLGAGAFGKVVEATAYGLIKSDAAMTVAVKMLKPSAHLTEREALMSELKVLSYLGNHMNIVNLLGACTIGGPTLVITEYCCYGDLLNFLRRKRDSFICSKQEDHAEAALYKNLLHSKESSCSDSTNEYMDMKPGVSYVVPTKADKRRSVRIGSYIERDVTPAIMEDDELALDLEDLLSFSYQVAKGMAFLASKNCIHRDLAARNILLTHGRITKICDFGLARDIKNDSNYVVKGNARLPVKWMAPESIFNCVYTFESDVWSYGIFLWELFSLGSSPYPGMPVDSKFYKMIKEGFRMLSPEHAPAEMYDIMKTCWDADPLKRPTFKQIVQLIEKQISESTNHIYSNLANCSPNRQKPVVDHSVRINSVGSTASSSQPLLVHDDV
Method: as §1, §2

MEKK2 = MEKK2 (Homo sapiens, UniProt Q9Y2U5); test: kinase inhibition activity, full kinase panel; format: biochemical; conditions: 1 μM of the compound; read-out: kinase activity inhibited (% inhibition)
Method: as §1, §2

SIK3 = SIK3 (Homo sapiens, UniProt Q9Y2K2); test: kinase inhibition activity, full kinase panel; format: biochemical; conditions: 1 μM of the compound; read-out: kinase activity inhibited (% inhibition)
Method: as §1, §2

HER2 = HER2 (Homo sapiens, UniProt P04626); test: kinase inhibition activity, full kinase panel; format: biochemical; conditions: 1 μM of the compound; read-out: kinase activity inhibited (% inhibition)
Method: as §1, §2

Fyn = Fyn (Homo sapiens, UniProt P06241); test: kinase inhibition activity, full kinase panel; format: biochemical; conditions: 1 μM of the compound; read-out: kinase activity inhibited (% inhibition)
Method: as §1, §2

Hck = Hck (Homo sapiens, UniProt P08631); test: kinase inhibition activity, full kinase panel; format: biochemical; conditions: 1 μM of the compound; read-out: kinase activity inhibited (% inhibition)
Method: as §1, §2

FMS = FMS (Homo sapiens, UniProt P07333); test: kinase inhibition activity, full kinase panel; format: biochemical; conditions: 1 μM of the compound; read-out: kinase activity inhibited (% inhibition)
FMS, sequence (P07333 20-972): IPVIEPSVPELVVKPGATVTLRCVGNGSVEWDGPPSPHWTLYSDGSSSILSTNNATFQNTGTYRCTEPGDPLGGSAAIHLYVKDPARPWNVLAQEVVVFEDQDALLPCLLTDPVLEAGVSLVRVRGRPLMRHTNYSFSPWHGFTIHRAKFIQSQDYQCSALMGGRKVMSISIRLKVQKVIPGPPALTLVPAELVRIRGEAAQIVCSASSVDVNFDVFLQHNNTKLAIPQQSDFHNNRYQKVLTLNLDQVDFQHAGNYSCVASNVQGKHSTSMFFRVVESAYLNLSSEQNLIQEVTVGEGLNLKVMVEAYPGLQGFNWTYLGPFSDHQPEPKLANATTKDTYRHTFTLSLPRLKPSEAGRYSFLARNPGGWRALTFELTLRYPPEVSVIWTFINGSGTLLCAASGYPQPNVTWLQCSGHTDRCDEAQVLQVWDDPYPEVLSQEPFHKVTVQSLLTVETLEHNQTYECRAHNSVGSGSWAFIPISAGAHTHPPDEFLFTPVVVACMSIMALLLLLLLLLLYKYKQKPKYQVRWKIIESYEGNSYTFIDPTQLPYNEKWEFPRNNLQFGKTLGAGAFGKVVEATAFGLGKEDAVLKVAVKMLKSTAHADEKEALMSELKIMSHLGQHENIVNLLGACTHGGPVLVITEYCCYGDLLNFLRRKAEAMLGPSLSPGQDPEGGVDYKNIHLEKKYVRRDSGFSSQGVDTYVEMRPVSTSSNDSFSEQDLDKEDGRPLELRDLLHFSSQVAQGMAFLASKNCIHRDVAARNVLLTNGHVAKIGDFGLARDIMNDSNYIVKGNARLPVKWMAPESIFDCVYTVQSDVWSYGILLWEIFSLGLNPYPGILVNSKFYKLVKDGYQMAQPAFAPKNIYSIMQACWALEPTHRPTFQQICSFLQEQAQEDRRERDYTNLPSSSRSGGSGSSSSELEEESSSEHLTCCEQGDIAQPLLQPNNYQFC
Method: as §1, §2

FLT4 = FLT4 (Homo sapiens, UniProt P35916); test: kinase inhibition activity, full kinase panel; format: biochemical; conditions: 1 μM of the compound; read-out: kinase activity inhibited (% inhibition)
Method: as §1, §2

ABL2 = ABL2 (Homo sapiens, UniProt P42684); test: kinase inhibition activity, full kinase panel; format: biochemical; conditions: 1 μM of the compound; read-out: kinase activity inhibited (% inhibition)
Method: as §1, §2

LCK = LCK (Homo sapiens, UniProt P06239); test: kinase inhibition activity, full kinase panel; format: biochemical; conditions: 1 μM of the compound; read-out: kinase activity inhibited (% inhibition)
Method: as §1, §2

[1] = target: (Homo sapiens, UniProt P09769); test: kinase inhibition activity, full kinase panel; format: biochemical; conditions: 1 μM of the compound; read-out: kinase activity inhibited (% inhibition)
(Homo sapiens, UniProt P09769), sequence (P09769 2-529 limits assumed): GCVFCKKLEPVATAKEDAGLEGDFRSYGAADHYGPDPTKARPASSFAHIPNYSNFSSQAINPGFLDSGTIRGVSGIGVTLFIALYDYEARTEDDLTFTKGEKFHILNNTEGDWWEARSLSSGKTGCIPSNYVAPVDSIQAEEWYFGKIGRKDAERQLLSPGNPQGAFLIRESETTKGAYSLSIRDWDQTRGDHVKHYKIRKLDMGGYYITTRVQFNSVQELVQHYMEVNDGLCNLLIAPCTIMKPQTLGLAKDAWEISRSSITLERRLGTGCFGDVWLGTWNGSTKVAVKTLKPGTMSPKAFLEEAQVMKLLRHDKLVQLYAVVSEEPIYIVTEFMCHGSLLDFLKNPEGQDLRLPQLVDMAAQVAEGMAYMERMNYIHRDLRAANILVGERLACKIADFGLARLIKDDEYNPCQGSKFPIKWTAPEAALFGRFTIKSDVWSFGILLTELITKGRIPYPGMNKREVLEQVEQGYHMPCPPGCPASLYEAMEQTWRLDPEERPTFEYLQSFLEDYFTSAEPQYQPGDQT
Method: as §1, §2

SIK2 = SIK2 (Homo sapiens, UniProt Q9H0K1); test: kinase inhibition activity, full kinase panel; format: biochemical; conditions: 1 μM of the compound; read-out: kinase activity inhibited (% inhibition)
SIK2, sequence (Q9H0K1 whole entry): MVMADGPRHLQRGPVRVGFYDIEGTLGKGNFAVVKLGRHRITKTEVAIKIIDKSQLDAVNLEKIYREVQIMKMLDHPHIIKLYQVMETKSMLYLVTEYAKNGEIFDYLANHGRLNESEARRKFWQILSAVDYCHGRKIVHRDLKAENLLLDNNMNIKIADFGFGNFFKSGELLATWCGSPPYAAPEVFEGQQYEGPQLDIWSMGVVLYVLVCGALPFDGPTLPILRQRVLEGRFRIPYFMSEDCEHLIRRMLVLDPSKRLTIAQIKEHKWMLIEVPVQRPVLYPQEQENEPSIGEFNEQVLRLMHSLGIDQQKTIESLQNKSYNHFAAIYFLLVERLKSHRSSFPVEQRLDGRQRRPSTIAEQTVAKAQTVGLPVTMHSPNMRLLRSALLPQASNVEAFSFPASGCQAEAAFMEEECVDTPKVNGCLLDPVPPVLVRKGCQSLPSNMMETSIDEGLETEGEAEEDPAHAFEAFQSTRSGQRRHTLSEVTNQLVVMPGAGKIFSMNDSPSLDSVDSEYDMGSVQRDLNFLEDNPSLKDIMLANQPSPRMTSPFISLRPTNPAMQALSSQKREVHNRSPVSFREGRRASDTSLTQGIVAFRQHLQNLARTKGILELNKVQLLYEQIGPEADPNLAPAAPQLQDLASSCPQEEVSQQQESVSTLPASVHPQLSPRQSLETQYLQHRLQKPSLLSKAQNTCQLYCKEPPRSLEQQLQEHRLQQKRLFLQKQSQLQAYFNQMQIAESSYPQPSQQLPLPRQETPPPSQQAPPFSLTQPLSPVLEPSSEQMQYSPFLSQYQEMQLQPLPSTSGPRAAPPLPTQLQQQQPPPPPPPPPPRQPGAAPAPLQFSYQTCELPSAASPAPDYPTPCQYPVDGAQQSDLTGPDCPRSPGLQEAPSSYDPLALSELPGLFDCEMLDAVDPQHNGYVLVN
Method: as §1, §2

DYRK1 = DYRK1 (Homo sapiens, UniProt Q13627); test: kinase inhibition activity, full kinase panel; format: biochemical; conditions: 1 μM of the compound; read-out: kinase activity inhibited (% inhibition)
Method: as §1, §2

ALK = ALK (Homo sapiens, UniProt Q9UM73); test: kinase inhibition activity, full kinase panel; format: biochemical; conditions: 1 μM of the compound; read-out: kinase activity inhibited (% inhibition)
Method: as §1, §2

FGFR3 = FGFR3 (Homo sapiens, UniProt P22607); test: kinase inhibition activity, full kinase panel; format: biochemical; conditions: 1 μM of the compound; read-out: kinase activity inhibited (% inhibition)
FGFR3, sequence (P22607 23-806): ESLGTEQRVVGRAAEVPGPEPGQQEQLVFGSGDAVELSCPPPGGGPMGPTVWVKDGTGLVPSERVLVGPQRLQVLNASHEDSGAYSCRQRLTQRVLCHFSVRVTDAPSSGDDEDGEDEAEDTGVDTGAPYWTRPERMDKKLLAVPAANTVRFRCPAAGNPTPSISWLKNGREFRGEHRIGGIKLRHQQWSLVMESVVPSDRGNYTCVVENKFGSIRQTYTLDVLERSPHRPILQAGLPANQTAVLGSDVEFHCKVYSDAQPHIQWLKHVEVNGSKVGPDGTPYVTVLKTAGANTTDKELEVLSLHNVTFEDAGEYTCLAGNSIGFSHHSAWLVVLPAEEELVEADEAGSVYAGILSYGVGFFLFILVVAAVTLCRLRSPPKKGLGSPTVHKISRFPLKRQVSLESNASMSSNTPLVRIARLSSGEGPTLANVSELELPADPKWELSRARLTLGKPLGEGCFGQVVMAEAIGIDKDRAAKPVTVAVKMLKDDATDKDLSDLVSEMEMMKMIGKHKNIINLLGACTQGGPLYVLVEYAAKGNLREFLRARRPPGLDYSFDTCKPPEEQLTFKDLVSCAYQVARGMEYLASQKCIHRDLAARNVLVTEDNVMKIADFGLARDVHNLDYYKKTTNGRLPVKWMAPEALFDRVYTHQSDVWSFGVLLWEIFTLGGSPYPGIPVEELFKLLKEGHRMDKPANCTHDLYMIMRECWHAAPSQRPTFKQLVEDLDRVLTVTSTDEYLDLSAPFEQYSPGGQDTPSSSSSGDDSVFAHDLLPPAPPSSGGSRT
Method: as §1, §2

YES = YES (Homo sapiens, UniProt P07947); test: kinase inhibition activity, full kinase panel; format: biochemical; conditions: 1 μM of the compound; read-out: kinase activity inhibited (% inhibition)
Method: as §1, §2

FGFR1 = FGFR1 (Homo sapiens, UniProt P11362); test: kinase inhibition activity, full kinase panel; format: biochemical; conditions: 1 μM of the compound; read-out: kinase activity inhibited (% inhibition)
Method: as §1, §2

FGFR4 = FGFR4 (Homo sapiens, UniProt P22455); test: kinase inhibition activity, full kinase panel; format: biochemical; conditions: 1 μM of the compound; read-out: kinase activity inhibited (% inhibition)
FGFR4, sequence (P22455 22-802): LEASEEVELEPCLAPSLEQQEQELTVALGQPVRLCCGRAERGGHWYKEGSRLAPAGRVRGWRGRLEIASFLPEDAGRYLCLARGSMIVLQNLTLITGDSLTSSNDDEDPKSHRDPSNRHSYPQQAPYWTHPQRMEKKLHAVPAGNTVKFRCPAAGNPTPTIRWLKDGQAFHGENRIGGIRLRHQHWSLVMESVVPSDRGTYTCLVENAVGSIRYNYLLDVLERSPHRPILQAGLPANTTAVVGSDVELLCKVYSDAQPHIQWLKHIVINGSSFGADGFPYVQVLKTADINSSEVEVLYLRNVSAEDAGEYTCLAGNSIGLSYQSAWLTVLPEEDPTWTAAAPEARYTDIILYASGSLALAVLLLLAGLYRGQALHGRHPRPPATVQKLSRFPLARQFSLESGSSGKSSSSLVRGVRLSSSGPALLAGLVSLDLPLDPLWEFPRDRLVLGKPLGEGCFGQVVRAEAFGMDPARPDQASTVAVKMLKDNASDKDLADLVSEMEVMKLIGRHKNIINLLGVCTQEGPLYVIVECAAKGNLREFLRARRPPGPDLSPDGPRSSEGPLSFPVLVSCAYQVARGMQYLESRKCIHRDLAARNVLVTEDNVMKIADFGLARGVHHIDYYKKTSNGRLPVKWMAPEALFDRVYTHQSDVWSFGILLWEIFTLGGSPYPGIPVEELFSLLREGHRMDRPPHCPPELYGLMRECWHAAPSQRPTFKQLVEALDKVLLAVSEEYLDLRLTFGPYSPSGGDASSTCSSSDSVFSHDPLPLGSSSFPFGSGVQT
Method: as §1, §2

TAOK2 = TAOK2 (Homo sapiens, UniProt Q9UL54); test: kinase inhibition activity, full kinase panel; format: biochemical; conditions: 1 μM of the compound; read-out: kinase activity inhibited (% inhibition)
Method: as §1, §2

FLT3 = FLT3 (Homo sapiens, UniProt P36888); test: kinase inhibition activity, full kinase panel; format: biochemical; conditions: 1 μM of the compound; read-out: kinase activity inhibited (% inhibition)
Method: as §1, §2

BMX = BMX (Homo sapiens, UniProt P51813); test: kinase inhibition activity, full kinase panel; format: biochemical; conditions: 1 μM of the compound; read-out: kinase activity inhibited (% inhibition)
Method: as §1, §2

DDR1 = DDR1 (Homo sapiens, UniProt Q08345); test: kinase inhibition activity, full kinase panel; format: biochemical; conditions: 1 μM of the compound; read-out: kinase activity inhibited (% inhibition)
Method: as §1, §2

DYRK2 = DYRK2 (Homo sapiens, UniProt Q92630); test: kinase inhibition activity, full kinase panel; format: biochemical; conditions: 1 μM of the compound; read-out: kinase activity inhibited (% inhibition)
Method: as §1, §2

microsomal stability = format: in vitro ADME, Human; conditions: for microsomal stability (% at time): Human
Method: The microsomal stability of N-(2,6-dichloro-3,5-dimethoxyphenyl)-1-(6-((4-(4-ethylpiperazin-1-yl)phenyl)amino)pyrimidin-4-yl)-1H-benz[d]imidazol-2-amine synthesized in Example 1, as a representative compound of the present invention, was evaluated.

inhibition at 1 µM (BLK): ≥ 50%
inhibition at 1 µM (ROS): ≥ 50%
inhibition at 1 µM (FGFR2): ≥ 50%
inhibition at 1 µM (DDR2): ≥ 50%
inhibition at 1 µM (TRKA): ≥ 50%
inhibition at 1 µM (LYN): ≥ 50%
inhibition at 1 µM (DYRK1B): ≥ 50%
inhibition at 1 µM (EGFR): ≥ 50%
inhibition at 1 µM (MAP4K5): ≥ 50%
inhibition at 1 µM (TNK1): ≥ 50%
inhibition at 1 µM (LYN B): ≥ 50%
inhibition at 1 µM (SIK1): ≥ 50%
inhibition at 1 µM (TAOK1): ≥ 50%
inhibition at 1 µM (ACK1): ≥ 50%
inhibition at 1 µM (LIMK1): ≥ 50%
inhibition at 1 µM (c-Kit): ≥ 50%
inhibition at 1 µM (MEKK2): ≥ 50%
inhibition at 1 µM (SIK3): ≥ 50%
inhibition at 1 µM (HER2): ≥ 50%
inhibition at 1 µM (Fyn): ≥ 50%
inhibition at 1 µM (Hck): ≥ 50%
inhibition at 1 µM (FMS): ≥ 50%
inhibition at 1 µM (FLT4): ≥ 50%
inhibition at 1 µM (ABL2): ≥ 50%
inhibition at 1 µM (LCK): ≥ 50%
inhibition at 1 µM [1]: ≥ 50%
inhibition at 1 µM (SIK2): ≥ 50%
inhibition at 1 µM (DYRK1): ≥ 50%
inhibition at 1 µM (ALK): ≥ 50%
inhibition at 1 µM (FGFR3): ≥ 50%
inhibition at 1 µM (YES): ≥ 50%
inhibition at 1 µM (FGFR1): ≥ 50%
inhibition at 1 µM (FGFR4): ≥ 50%
inhibition at 1 µM (TAOK2): ≥ 50%
inhibition at 1 µM (FLT3): ≥ 50%
inhibition at 1 µM (BMX): ≥ 50%
inhibition at 1 µM (DDR1): ≥ 50%
inhibition at 1 µM (DYRK2): ≥ 50%
microsomal stability (% at time) (microsomal stability; 0 min): 100.00%
microsomal stability (% at time) (microsomal stability; 5 min): 80.36%
microsomal stability (% at time) (microsomal stability; 10 min): 76.63%
microsomal stability (% at time) (microsomal stability; 15 min): 64.04%
microsomal stability (% at time) (microsomal stability; 30 min): 51.45%
microsomal stability (% at time) (microsomal stability; 45 min): 37.62%
microsomal stability (% at time) (microsomal stability; 60 min): 36.17%
half-life (microsomal stability; microsomes, Human microsomal stability): 33.9 min
Compound: CCN1CCN(c2ccc(Nc3cc(-n4c(Nc5c(Cl)c(OC)cc(OC)c5Cl)nc5ccccc54)ncn3)cc2)CC1 [Example 1, N-(2,6-dichloro-3,5-dimethoxyphenyl)-1-(6-((4-(4-ethylpiperazin-1-yl)phenyl)amino)pyrimidin-4-yl)-1H-benz[d]imidazol-2-amine]
